Measurements as given in ChEMBL document CHEMBL1833935, “Metal-free cleavage efficiency toward DNA by a novel PNA analog-bridged macrocyclic polyamine” (Bioorg Med Chem Lett, 2011).
Blank lines part the entries; values can stand above or below the compound they belong to. The source made the active and inactive calls. The calls are words filed in the database; no cut-off is given here. *1 amine or outer side, *2 acyl side, *3 side chain or, on linkers, in order; H or OH if unused. Where a SMILES comes first, the peptide text is derived from it. Bridges are numbered along the chain shown (N, C = ends). Roman numbers before positions name the chains, in order. The star is where a group is joined. Hexamethylenediamine = C(CCCN[*:2])CCN[*:1]; Cyclenylacetyl = O=C(CN1CCNCCNCCNCC1)*; X1 = O=c1[nH]cc(C*)c(=O)[nH]1

Columns and labels:
Format in all cases: nucleic-acid assay
[1] = tested on: Nucleic Acid; assay: Binding affinity to calf thymus DNA at compound/DNA ratio 2:5; details: Bos taurus
[2] = tested on: Nucleic Acid; assay: Induction of Escherichia coli pUC19 DNA cleavage assessed as conversion of supercoiled plasmid DNA to nicked circular DNA at 20 uM after 48 hrs by agarose gel electrophoresis
[3] = tested on: Nucleic Acid; assay: Binding affinity to calf thymus DNA assessed as change in melting temperature at compound/DNA ratio of 1:5; details: Bos taurus
[4] = tested on: Nucleic Acid; assay: Induction of Escherichia coli pUC19 DNA cleavage assessed as conversion of supercoiled plasmid DNA to nicked circular DNA at 10 uM after 48 hrs by agarose gel electrophoresis
[5] = tested on: Nucleic Acid; assay: Induction of supercoiled Escherichia coli pUC19 DNA cleavage in HEPES buffer at pH 7.0 after 48 hrs by agarose gel electrophoresis in presence of 0.1 M tert-butyl alcohol
[6] = tested on: Nucleic Acid; assay: Induction of supercoiled Escherichia coli pUC19 DNA cleavage in HEPES buffer at pH 7.0 after 48 hrs by agarose gel electrophoresis in presence of 0.1 M NaN3
[7] = tested on: Nucleic Acid; assay: Induction of [5'-32P]-end labeled single stranded 24 mer DNA cleavage assessed as formation of ladder of DNA fragment at 10 to 100 uM after 48 hrs at pH 7.0 and < = 25 degC by agarose gel electrophoresis-based phosphorimager analysis
[8] = tested on: Nucleic Acid; assay: Induction of Escherichia coli pUC19 DNA cleavage assessed as conversion of supercoiled plasmid DNA to nicked circular DNA at 10 uM after 48 hrs by agarose gel electrophoresis in presence of 1 mM EDTA
[9] = tested on: Nucleic Acid; assay: Induction of supercoiled Escherichia coli pUC19 DNA cleavage in HEPES buffer at pH 7.0 after 48 hrs by agarose gel electrophoresis in presence of 0.1 M DSMO
[10] = tested on: Nucleic Acid; assay: Induction of [5'-32P]-end labeled single stranded 26 mer DNA cleavage assessed as formation of ladder of DNA fragment at 10 to 100 uM after 48 hrs at pH 7.0 and < = 25 degC by agarose gel electrophoresis-based phosphorimager analysis
[11] = tested on: Nucleic Acid; assay: Induction of supercoiled Escherichia coli pUC19 DNA cleavage in HEPES buffer at pH 7.0 after 48 hrs by agarose gel electrophoresis in presence of 0.1 M potassium iodide
[12] = tested on: Nucleic Acid; assay: Binding affinity to calf thymus DNA assessed as change in melting temperature at compound/DNA ratio of 2:5; details: Bos taurus
[13] = tested on: Nucleic Acid; assay: Induction of [5'-32P]-end labeled single stranded 26 mer DNA cleavage assessed as formation of ladder of DNA fragments in HEPES buffer at 10 to 100 uM after 48 hrs at pH 7.0 and 37 degC by agarose gel electrophoresis-based phosphorimager analysis
[14] = tested on: Nucleic Acid; assay: Induction of [5'-32P]-end labeled single stranded 24 mer DNA cleavage assessed as formation of ladder of DNA fragment at 10 to 100 uM after 48 hrs at pH 7.0 and 37 degC by agarose gel electrophoresis-based phosphorimager analysis
[15] = tested on: Nucleic Acid; assay: Induction of Escherichia coli pUC19 DNA cleavage assessed as conversion of supercoiled plasmid DNA to linear DNA at 10 uM after 48 hrs by agarose gel electrophoresis

Activity [1]: Active
Activity [2]: inactive
ΔTm [3]: 1.1 °C
Activity [4]: Active
SMILES: COC(=O)[C@H](CSCc1c[nH]c(=O)[nH]c1=O)NC(=O)CNC(=O)[C@H](CSCc1c[nH]c(=O)[nH]c1=O)NC(=O)CNC(=O)CN1CCNCCNCCNCC1 (Cyclenylacetyl-GC(X1)GC(X1)-OMe)

Activity [2]: inactive
SMILES: C1CNCCNCCNCCN1

Activity [5]: Active
Activity [6]: inactive
ΔTm [3]: 5.9 °C
Activity [7]: inactive
Activity [8]: Active
Activity [9]: inactive
Activity [10]: inactive
Activity [11]: Active
ΔTm [12]: 2.3 °C
Activity [4]: Active
Activity [13]: Active
Activity [14]: Active
Activity [15]: Active
SMILES: O=C(CN1CCNCCNCCNCC1)NCC(=O)N[C@@H](CSCc1c[nH]c(=O)[nH]c1=O)C(=O)NCC(=O)N[C@@H](CSCc1c[nH]c(=O)[nH]c1=O)C(=O)NCCCCCCNC(=O)[C@H](CSCc1c[nH]c(=O)[nH]c1=O)NC(=O)CNC(=O)[C@H](CSCc1c[nH]c(=O)[nH]c1=O)NC(=O)CNC(=O)CN1CCNCCNCCNCC1 (I: Cyclenylacetyl-GC(X1)GC(X1) / II: Cyclenylacetyl-GC(X1)GC(X1); linker I:C-II:C via Hexamethylenediamine)

Activity [4]: Active
SMILES: CC(C)(C)OC(=O)N1CCN(CC(=O)NCC(=O)N[C@@H](CSCc2c[nH]c(=O)[nH]c2=O)C(=O)NCC(=O)N[C@@H](CSCc2c[nH]c(=O)[nH]c2=O)C(=O)NCCCCCCNC(=O)[C@H](CSCc2c[nH]c(=O)[nH]c2=O)NC(=O)CNC(=O)[C@H](CSCc2c[nH]c(=O)[nH]c2=O)NC(=O)CNC(=O)CN2CCN(C(=O)OC(C)(C)C)CCN(C(=O)OC(C)(C)C)CCN(C(=O)OC(C)(C)C)CC2)CCN(C(=O)OC(C)(C)C)CCN(C(=O)OC(C)(C)C)CC1
